In patent US10844013B2, “Phenyl amino piperidine mTORC inhibitors and uses thereof” (Navitor Pharmaceuticals, Inc., priority 2016, dated 2020):

Columns and labels:
Format in all cases: cell-based
MCF-7 cells = experiment: Radioactive glucose uptake in MCF-7 cells; details: Homo sapiens, MCF7, 3H-2DG uptake
Experimental: Example 157: Radioactive Glucose Uptake in MCF-7 Cells
Assay Protocol • 1. Seed approximately 12,000 MCF-7 cells cultured without insulin per well in 96-well plates (BIOCOAT, #356690) and let the cells sit in hood for 30 min. (Cell culture medium: DMEM+10% FBS). • 2. Put the cell culture plates in TC incubator (5% CO2, 37° C.) and incubate overnight. • 3. Take out the cell plates and wash with prewarmed KRH buffer (37° C.) three times using BioTek plate washer. (KRH buffer preparation: 136 mM NaCl, 4.7 mM KCl, 1.25 mM MgCl2, 1.2 mM CaCl2), 20 mM HEPES, 0.1 mg/ml sodium pyruvate, 0.1% BSA, pH 7.4). • 4. Compound preparation and treatment: • a) Add 12 ul compound stock in 100% DMSO to the first column of Echo LDV plate • b) Serially dilute the compound solution in 100% DMSO (4 uL+8 uL DMSO) using Bravo for 9 doses • c) Dispense 350 nL compounds using Echo to the working plate. • d) i) Without compound preincubation condition, dispense 116 uL KRH buffer containing tritiated 2-deoxy-D-glucose (3H-2DG) and 2-deoxy-D-glucose (2DG) to the working plate and mix. • ii. With compound preincubation condition, dispense 110 uL KRH buffer only to the working plates and mix • e) Keep the compound working plate at 37° C. incubator until use • 5. Discard the KRH buffer (cells were kept in KRH buffer for 10-15 min before 2-DG addition) and transfer 100 uL compound working solution out to the cell culture plate using Bravo. Incubate for 20 mins at 37° C. (2DG final at 0.2 mM, 3H-2DG at 10 uCi/mL). • 6. Add prewarmed 50 uL KRH buffer (37° C.) containing 60 mM cold 2DG to the wells to stop the 2DG uptake using Multidrop combi • 7. Wash the cells with prewarmed PBS three times using BioTek plate washer • 8. Add 50 uL lysis buffer (0.1 M NaOH) into the assay plate to lyse the cells using Bravo and shake at 800 rpm for 30 min. • 9. Mix and transfer 20 uL lysate to a new white plate (Corning, #3610) and add 200 uL MicroScint-20 using Bravo • 10. Shake the plate at 1000 rpm for 30 min and count in a MicroBeta plate reader.

[1] = system: pAKT (p-Akt 1/2/3 (Ser473)) in MCF-7 cells; experiment: AlphaLISA Ultra pAKT assay; details: Homo sapiens, MCF7, 2 hours compound incubation
Outline: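 MCF-7 cells seeded 20-24 h, medium refreshed for 2 h, then treated with compounds for 2 h at 0.5% final DMSO. Lysates frozen at −80 °C, then pAKT detected by AlphaLISA with acceptor and donor beads, 2 h each.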

[2] = system: pS6K1 (p-p70 S6 Kinase (Thr389)) in MCF-7 cells; experiment: AlphaLISA Ultra pS6K1 assay; details: Homo sapiens, MCF7, 2 h, 2 hours compound incubation
Outline: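 MCF-7 cells seeded 20–24 h, medium refreshed 2 h, then treated 2 h with compound (0.5% DMSO final). Lysates probed for Thr389-phosphorylated p70 S6K by AlphaLISA Ultra, 2 h acceptor then 2 h donor bead incubation, read on a multimode reader.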

Row | SMILES | IC50 (MCF-7 cells) [nM] | IC50 [1] [µM] | IC50 [2] [nM]
1 | Cc1cc(C)c(C(=O)N2CCN(c3cccc(F)c3)C(CO)C2)cc1NC1CCN(c2ccccc2C#N)CC1 (stereo not drawn) [I-75, 2-[4-({5-[4-(3-Fluorophenyl)-3-(hydroxymethyl)piperazine-1-carbonyl]-2,4-dimethylphenyl}amino)piperidin-1-yl]benzonitrile] | 10 to 1000 | > 10 | 10 to 1000
2 | Cc1cc(C)c(C(=O)N2CCN(c3cccnn3)[C@H](CN)C2)c(C)c1NC1CCN(c2ccccc2C#N)CC1 [I-194, (R)-2-(4-(3-(3-(aminomethyl)-4-(pyridazin-3-yl)piperazine-1-carbonyl)-2,4,6-trimethylphenylamino)piperidin-1-yl)benzonitrile] | 10 to 1000 | > 10 | 10 to 1000
3 | Cc1cc(C)c(C(=O)N2CCN(c3cncc4cn[nH]c34)CC2)cc1NC1CCN(c2ccccc2C#N)CC1 [I-44, 2-(4-(5-(4-(1H-Pyrazolo[4,3-c]pyridin-7-yl)piperazine-1-carbonyl)-2,4-dimethylphenylamino)piperidin-1-yl)benzonitrile] | 10 to 1000 | > 10 | 10 to 1000
4 | Cc1cc(C)c(C(=O)N2CCN[C@@H](CO)C2)cc1NC1CCN(c2ccccc2C#N)CC1 [I-6, (R)-2-(4-(5-(3-(Hydroxymethyl)piperazine-1-carbonyl)-2,4-dimethylphenylamino)piperidin-1-yl)benzonitrile] | > 10000 | > 10 | > 10000
5 | Cc1cc(C)c(C(=O)N2CCN(c3ccccn3)[C@H](C)C2)cc1NC1CCN(c2ccccc2C#N)CC1 [I-45, (R)-2-(4-(2,4-Dimethyl-5-(3-methyl-4-(pyridin-2-yl)piperazine-1-carbonyl)phenylamino)piperidin-1-yl) benzonitrile] | 10 to 1000 | > 10 | 10 to 1000
6 | Cc1cc(C)c(C(=O)N2CCN(c3cccnc3S(N)(=O)=O)CC2)c(C)c1NC1CCN(c2ccccc2C#N)CC1 [I-2, 3-(4-(3-(1-(2-Cyanophenyl)piperidin-4-ylamino)-2,4,6-trimethylbenzoyl)piperazin-1-yl)pyridine-2-sulfonamide] | 10 to 1000 | > 10 | 10 to 1000
7 | Cc1cc(C)c(C(=O)N2CCN(c3cccc(F)c3S(N)(=O)=O)C[C@@H]2C)c(C)c1NC1CCN(c2ccc(F)cc2C#N)CC1 [I-182, (S)-2-(4-(3-((1-(2-cyano-4-fluorophenyl)piperidin-4-yl)amino)-2,4,6-trimethylbenzoyl)-3-methylpiperazin-1-yl)-6-fluorobenzenesulfonamide] | 10 to 1000 | > 10 | 10 to 1000
8 | Cc1cc(C)c(C(=O)N2CCN(c3cccc(F)c3[S@@](C)(=N)=O)CC2)cc1NC1CCN(c2ccccc2C#N)CC1 (single isomer, unassigned) [I-88] | 10 to 1000 | > 10 | 10 to 1000
9 | Cc1cc(C)c(S(=O)(=O)N2CCN(c3ccccc3S(N)(=O)=O)CC2)nc1NC1CCN(c2ccccc2C#N)CC1 [I-111, 2-(4-(6-(1-(2-Cyanophenyl)piperidin-4-ylamino)-3,5-dimethylpyridin-2-ylsulfonyl)piperazin-1-yl)benzenesulfonamide] | 10 to 1000 | > 10 | 10 to 1000
10 | Cc1ccc(NC2CCN(c3ccccc3C#N)CC2)cc1C(=O)N1CCN(c2ccccc2S(N)(=O)=O)CC1 [I-22, 2-(4-(5-(1-(2-Cyanophenyl)piperidin-4-ylamino)-2-methylbenzoyl)piperazin-1-yl)benzenesulfonamide] | 3000 to 5000 | > 10 | 3000 to 5000
11 | Cc1nc(C)c(C(=O)N2CCN(c3ccccc3S(N)(=O)=O)CC2)cc1NC1CCN(c2ccccc2C#N)CC1 [I-12, 2-(4-(5-(1-(2-Cyanophenyl)piperidin-4-ylamino)-2,6-dimethylnicotinoyl)piperazin-1-yl)benzenesulfonamide] | > 10000 | > 10 | > 10000
12 | Cc1cccc(N2CCN(C(=O)c3cc(NC4CCN(c5ccccc5C#N)CC4)c(C)cc3C)C[C@H]2CO)n1 [I-102, (S)-2-(4-(5-(3-(Hydroxymethyl)-4-(6-methylpyridin-2-yl)piperazine-1-carbonyl)-2,4-dimethylphenylamino)piperidin-1-yl)benzonitrile] | 10 to 1000 | > 10 | 10 to 1000
13 | Cc1cc(C)c(C(=O)N2CCN(c3cccnc3S(N)(=O)=O)CC2)cc1NC1CCN(c2ccccc2C#N)CC1 [I-3, 3-(4-(5-(1-(2-Cyanophenyl)piperidin-4-ylamino)-2,4-dimethylbenzoyl)piperazin-1-yl)pyridine-2-sulfonamide] | 10 to 1000 | > 10 | 10 to 1000
14 | Cc1cc(C)c(C(=O)N2CCN(c3ccccc3)[C@H](CO)C2)c(C)c1NC1CCN(c2ccncn2)CC1 [I-166, [(3S)-3-(Hydroxymethyl)-4-phenyl-piperazin-1-yl]-[2,4,6-trimethyl-3-[(1-pyrimidin-4-yl-4-piperidyl)amino]phenyl]methanone] | > 10000 | > 10 | 1000 to 3000
15 | Cc1cc(C)c(N(CCO)C2CCN(c3ccccc3C#N)CC2)cc1C(=O)N1CCN(c2ccccc2S(N)(=O)=O)CC1 [I-1, 2-(4-(5-((1-(2-Cyanophenyl)piperidin-4-yl)(2-hydroxyethyl)amino)-2,4-dimethylbenzoyl)piperazin-1-yl)benzenesulfonamide] | 10 to 1000 | > 10 | 10 to 1000
16 | Cc1cc(C)c(C(=O)N2CCN(c3cccc4c3NC(=O)C4)CC2)cc1NC1CCN(c2ccccc2C#N)CC1 [I-61, 2-(4-(2,4-Dimethyl-5-(4-(2-oxoindolin-7-yl)piperazine-1-carbonyl)phenylamino)piperidin-1-yl)benzonitrile] | 10 to 1000 | > 10 | 10 to 1000
17 | Cc1cc(C)c(C(=O)N2CCN(c3ncccc3S(N)(=O)=O)CC2)nc1NC1CCN(c2ccccc2C#N)CC1 [I-25, 2-(4-(6-(1-(2-Cyanophenyl)piperidin-4-ylamino)-3,5-dimethylpicolinoyl)piperazin-1-yl)pyridine-3-sulfonamide] | 10 to 1000 | > 10 | 10 to 1000
18 | Cc1ccc(C(=O)N2CCN(c3cccnc3S(N)(=O)=O)CC2)c(C)c1NC1CCN(c2ccccc2C#N)CC1 [I-121, 3-(4-(3-(1-(2-cyanophenyl)piperidin-4-ylamino)-2,4-dimethylbenzoyl)piperazin-1-yl)pyridine-2-sulfonamide] | 10 to 1000 | > 10 | 10 to 1000
19 | Cc1cc(C)c(C(=O)N2CCN(c3cc(F)ccn3)[C@H](CO)C2)cc1NC1CCN(c2ccccc2C#N)CC1 [I-100, (S)-2-(4-(5-(4-(4-Fluoropyridin-2-yl)-3-(hydroxymethyl)piperazine-1-carbonyl)-2,4-dimethylphenylamino)piperidin-1-yl)benzonitrile] | 10 to 1000 | > 10 | 10 to 1000
20 | Cc1cc(C)c(C(=O)N2CCN(c3cccc(F)c3[S@@](C)(=N)=O)C[C@@H]2C)c(C)c1NC1CCN(c2ccc(F)cc2C#N)CC1 [I-191, 5-fluoro-2-(4-(3-((2S)-4-(3-fluoro-2-(S-methylsulfonimidoyl)phenyl)-2-methylpiperazine-1-carbonyl)-2,4,6-trimethylphenylamino)piperidin-1-yl)benzonitrile] | 10 to 1000 | > 10 | 10 to 1000
21 | Cc1cc(C)c(C(=O)N2CCN(c3ccccc3S(N)(=O)=O)CC2)cc1N[C@@H]1CCN(c2ccccc2C#N)C[C@@H]1C [I-171, 2-(4-(5-(((3S,4R)-1-(2-cyanophenyl)-3-methylpiperidin-4-yl)amino)-2,4-dimethylbenzoyl)piperazin-1-yl)benzenesulfonamide] | 10 to 1000 | > 10 | 10 to 1000
22 | Cc1cc(C)c(C(=O)N2CCN(c3ccccc3C#N)[C@H](CO)C2)cc1NC1CCN(c2ccccc2C#N)CC1 (single isomer, unassigned) [I-79, 2-[4-({5-[(3S or 3R)-4-(2-Cyanophenyl)-3-(hydroxymethyl)piperazine-1-carbonyl]-2,4-dimethylphenyl}amino)piperidin-1-yl]benzonitrile] | 10 to 1000 | > 10 | 10 to 1000
